The nature of data set [1]: Hapten-induced (oxazolone) colitis. In kind it is in vivo, mouse. The protocol: The hapten-induced colitis model using oxazolone (4-ethoxymethylene-2-phenyl-2-oxazolin-5-one) as the hapten was established in WT B6 or MTP^flox/floxMx1Cre mice as previously described. Briefly, 6 week-old female mice were injected intraperitoneally with vehicle or 500 μg pIpC at days 1, 3, 5 and 7 followed by application of 200 μl of 3% oxazolone (Sigma-Aldrich, St. Louis, Mo.) in 100% ethanol on the abdomen at day 8. On day 14, mice were anesthetized with tribromo-ethanol (Sigma-Aldrich) and 150 μl of 1% oxazolone in 50% ethanol administered per rectum via a 3.5F catheter. Wasting was monitored until day 18 at which time the mice were sacrificed and tissue samples collected for histological examination. Colonic tissue specimens for histological assessment of colitis were fixed in 10% buffered formalin phosphate and embedded in paraffin, cut into 5 micron thick sections and stained with hematoxylin-eosin. The stained paraffin sections were evaluated by for the following parameters of colitis on a scale of 0 to 3 according to known methods: hypervascularity, mononuclear cell infiltration, crypt hyperplasia, epithelial injury or ulceration, polymorphonuclear cell infiltration or crypt abscesses.
The effect of MTPp gene deletion on the clinicopathologic outcome of oxazolone-induced colitis was examined.

Data set [2] can be described thus: Assessment of plasma lipids and body weight after pIpC treatment. It counts as in vivo, mouse. The protocol: Female 6-8 week-old of both MTP^pflox/floxMx1Cre mice and WT B6 mice that had been injected intraperitoneally with either PBS as control or 500 μg polyinosinic-polycytidylic ribonucleic acid (pIpC, Sigma, St. Louis, Mo.) in PBS every other day for a total of four doses were sacrificed one or 10 days after the last pIpC injection at which time sera was obtained from peripheral blood. The serum was subjected to total cholesterol and triglyceride assays at the clinical laboratory of Brigham and Women's Hospital (Boston, Mass.).
To further substantiate a direct biochemical relationship between CD1d and MTP, the effects on CD1d expression and function was examined in a conditional MTP-deficient mouse model which contains a “floxed” MTPp gene (MTPp^flox/flox) that had been intercrossed with mice expressing Mx1 promoter controlled, Cre-recombinase (Raabe, M. et al. J. Clin. Invest. 103, 1287-1298 (1999); Bjorkegren, J., Beigneux, A., Bergo, M. O., Maher, J. J. & Young, S. G. J. Biol. Chem. 277, 5476-5483 (2002)). The Mx1 promoter is induced by interferon-inducing substances such as polyinosinic-polycytidylic acid (pIpC) (Raabe, M. et al. J. Clin. Invest. 103, 1287-1298 (1999); Bjorkegren, J., Beigneux, A., Bergo, M. O., Maher, J. J. & Young, S. G. J. Biol. Chem. 277, 5476-5483 (2002); Ralf, K., Schwenk, F., Aguet, M. & Rajewsky, K. Science. 269, 1427-1429 (1995)) such that treatment of MTPp^flox/floxMx1Cre mice with pIpC leads to deletion of the MTPp gene (MTPp^Δ/Δ) primarily within the liver, spleen and intestine providing a degree of tissue specificity to the gene deletion. As previously reported, treatment of 6-10 week old MTPp^flox/floxMx1Cre mice (or MTP^flox/floxMx1Cre mice) with pIpC caused progressive hepatic steatosis (1C) and decreases in serum triglyceride and cholesterol levels (Table 5) in association with decreased MTP mRNA levels as defined by RT-PCR (FIG. 1D) and protein levels (FIG. 1E) in liver and colon.

The next data set relates to CD1d. The experiment in a line: Flow cytometric analysis of CD1d surface expression on splenocytes of pIpC treated mice. It counts as in vivo, mouse. The following applies: for Mean fluorescence intensity: CD1d; for Mean fluorescence intensity / % CD1d+: splenocytes. The source says:
Mouse cells were stained using the following antibodies: FITC-conjugated α-CD1d (1B1, PharMingen); PE-conjugated α-CD11c (HL3, PharMingen); FITC-conjugated α-1-A^d (AMS-32.1, PharMingen); PE-conjugated α-CD69 (H1.2F3, PharMingen); PE-conjugated α-B220 (RA3-6B2, PharMingen). Human cells were stained using: PE-conjugated α-CD83 (550634, PharMingen); FITC-conjugated α-HLA-A,B,C (557348, PharMingen); α-HLA DR,DP,DQ (32381A, PharMingen); α-CD1d (42.1 or 51.1.3); α-mouse IgG+IgM (AMI1708, Biosource, Camarillo, Calif.). Staining was performed in the presence of Via-Probe (PharMingen) and analyzed with a FACSort flow cytometer (Becton Dickinson).

The format of data set [3] is in vivo, mouse. The conditions noted are these: mouse, in vivo. The protocol:
αGalCer was kindly provided by Dr. Michael Brenner (Brigham and Women's Hospital, Boston, Mass.). […] Mice were sacrificed and sera from peripheral blood subjected to […] (ALT) or aminoaspartate transferase (AST) assays. The kinetic quantitative determination of ALT in serum was performed by ALT/SGPT LIQUI-UV (Stanbio Laboratory, Boeme, Tex.) according to the manufacture's instructions. Fresh liver samples were collected for macroscopic and microscopic inspection. For microscopic examination, liver tissues were immediately fixed in 10% buffered formalin phosphate and embedded in paraffin, cut into sections and stained with hematoxylin-eosin. The clinical response to a hepatocyte mediated, CD1d-dependent response in vivo was evaluated (Osman, Y. et al. Eur. J. Immunol. 30, 1919-1928 (2000)). […] The latter was evident from the absence of elevations of transaminases (FIG. 2D, panels c and d), macroscopic liver necrosis (FIG. 2E, panel d) or microscopic evidence of hepatitis (FIG. 2F, panel d) in the MTP^flox/floxMx1Cre mice that received αGalCer with prior pIpC treatment.

The next data set has as its target T1, recombinant murine CD1d (Mus musculus, UniProt P11609).
T1 construct: made in house; host or cells: baculovirus expression system (CD1d); rat liver (MTP)
T1 sequence (P11609 22-305 limits assumed): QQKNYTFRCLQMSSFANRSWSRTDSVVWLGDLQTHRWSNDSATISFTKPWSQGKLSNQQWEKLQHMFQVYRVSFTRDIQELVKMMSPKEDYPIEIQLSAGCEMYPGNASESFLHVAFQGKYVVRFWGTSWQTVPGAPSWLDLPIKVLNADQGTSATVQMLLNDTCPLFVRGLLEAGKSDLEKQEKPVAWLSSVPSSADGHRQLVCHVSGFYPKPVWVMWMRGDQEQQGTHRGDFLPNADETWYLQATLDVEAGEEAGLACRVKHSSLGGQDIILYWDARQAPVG
T1 sequence (P01887 21-119 partner): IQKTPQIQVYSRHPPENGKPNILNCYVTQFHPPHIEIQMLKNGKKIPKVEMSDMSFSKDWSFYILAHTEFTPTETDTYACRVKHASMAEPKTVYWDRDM
Briefly: PE transfer assay from MTP to recombinant CD1d. In kind it is biochemical. The following applies: 0.5 μg purified MTP, PE:NBD vesicles, 2 hours 37 degrees. The protocol:
FIG. 16A is a bar chart showing purified MTP transfers a lipid to recombinant CD1d in vitro. Two micrograms of BSA or recombinant CD1d were coated onto microtiter wells and incubated with either PE:NBD vesicles alone or PE:NBD vesicles plus 0.5 μg purified MTP. Results are representative of five independent experiments. *, p<0.005
The triglyceride transfer activity of MTP was measured using donor phospholipids vesicles (Chylos Inc.) as described. PE transfer was done by overnight coating of a microtiter plate with 2 ug per well recombinant murine CD1d purified by baculovirus expression system. […] Fluorescence was read with a fluorescence plate reader (7620 Microplate Fluorimeter; Cambridge Technology, Watertown, Mass.) using 460 nm excitation and 530 nm emission wavelengths.
Recombinant β2m associated CD1d was coated onto a 96 well plate and incubated with liposomes containing a 6:1 ratio of unlabeled PE:NBD-labeled PE. […] Lipids bound to CD1d were eluted with isopropanol, transferred to a black microtiter plate, and the level of fluorescence determined. […] Assuming equal efficiency of MTP-mediated transfer of labeled versus unlabeled PE to the CD1d pocket and that all CD1d molecules bound to the plastic in an orientation with the groove solvent accessible, we calculated that the maximum limit of NBD-labeled PE that could be transferred to CD1d was 4.7 picomoles in this assay. […]

[4] abbreviates: C57BL/6J mice, 1 day after treatment.
Where [5] appears, read: C57BL/6J mice, 10 days after treatment.
Where [6] appears, read: MTPflox/floxMx1Cre mice, 1 day after treatment.
The mark [7] stands for this setting: MTPflox/floxMx1Cre mice, 10 days after treatment.

Marks after values point to notes of the source that are not given here.

Consider “polyinosinic-polycytidylic ribonucleic acid [pIpC]”, for which the “colitis in response to oxazolone” value in data set [1] (MTPflox/floxMx1Cre mice pretreated with pIpC) is given as “little evidence of colitis”. Moreover, in data set [1] (WT B6 mice exposed to oxazolone with pIpC administration), the colitis entry is reported as “not ameliorated”. Also, the Serum triglycerides is 88.1 ± 6.6 mg/dL in data set [2] (setting [4]), 110.0 ± 11.2 mg/dL in data set [2] (setting [5]), 52.0 ± 7.5 mg/dL in data set [2] (setting [6]) and 43.5 ± 7.3 mg/dL in data set [2] (setting [7]). Also, the “Total S. Cholesterol” value came out at 96.2 ± 12.2 mg/dL in data set [2] (setting [4]), 127.0 ± 5.8 mg/dL in data set [2] (setting [5]), 55.1 ± 9.7 mg/dL in data set [2] (setting [6]) and 49.2 ± 3.1 mg/dL in data set [2] (setting [7]). Also, the Mean fluorescence intensity in the data set on CD1d (B6 mice) is given as 8.0; with CD1d (MTPmx1 mice), 6.2 +/− 0.9*. Besides, in the data set on CD1d (control wild-type mice injected with pIpC), the CD1d expression entry was “No reduction”. For the same molecule, the figures for the “% CD1d+” value in the data set with CD1d (B6 mice) and in the data set with CD1d (MTPmx1 mice) were 42.2% and 29.9 +/− 4.7* %, respectively. For the same molecule, the hepatic inflammation result in data set [3] is “absence of inflammation”.

B1: MTP: microsomal triglyceride transfer protein purified from rat liver (>95% pure by SDS-PAGE) (protein)
chain 1: HTTGLSLNNERLYKLTYSTEVFLDGGKGKPQDSVGYKISSDVDVVLLWRNPDGDDDQVIQVTITAVNVENAGQQRGEKSIFQGKSTPKIIGKDNLEALQRPMLLHLVRGKVKEFYSYENEPVGIENLKRGLASLFQMQLSSGTTNEVDISGDCKVTYQAQQDKVVKIKALDTCKIERSGFTTANQVLGVSSKATSVTTYKIEDSFVTAVLAEETRAFALNFQQTIAGKIVSKQKLELKTTEAGPRMIPGKQVAGVIKAVDSKYKAIPIVGQVLERVCKGCPSLAEHWKSIRKNLEPENLSKAEAVQSFLAFIQHLRTSRREEILQILKAEKKEVLPQLVDAVTSAQTPDSLEAILDFLDFKSDSSIILQERFLYACGFATHPDEELLRALLSKFKGSFASNDIRESVMIIIGALVRKLCQNEGCKLKAVVEAKKLILGGLEKPEKKEDTTMYLLALKNALLPEGIPLLLKYAEAGEGPVSHLATTVLQRYDVSFITDEVKKTLNRIYHQNRKVHEKTVRTTAAAVILKNPSYMDVKNILLSIGELPKEMNKYMLTVVQDILHFEMPASKMIRRVLKEMAVHNYDRFSKSGSSSAYTGYVERSPRAASTYSLDILYSGSGILRRSNLNIFQYIKGTELHGSQVVIEAQGLEGLIAATPDEGEENLDSYAGMSAILFDVQLRPVTFFNGYSDLMSKMLSASGDPVSVVKGLILLIDHSQDIQLQSGLKANMEIQGGLAIDISGSMEFSLWYRESKTRVKNRVAVVITSDVTVDASFVKAGLESRAETEAGLEFISTVQFSQYPFLVCMQMDKAEAPLRQFETKYERLSTGRGYVSRRRKESLVAGCELPLHQQNSEMCNVVFPPQPESDNSGGWF
chain 2: DALEEEDNVLVLKKSNFEEALAAHKYLLVEFYAPWCGHCKALAPEYAKAAAKLKAEGSEIRLAKVDATEESDLAQQYGVRGYPTIKFFKNGDTASPKEYTAGREADDIVNWLKKRTGPAATTLSDTAAAESLVDSSEVTVIGFFKDVESDSAKQFLLAAEAIDDIPFGITSNSGVFSKYQLDKDGVVLFKKFDEGRNNFEGEITKEKLLDFIKHNQLPLVIEFTEQTAPKIFGGEIKTHILLFLPKSVSDYDGKLSSFKRAAEGFKGKILFIFIDSDHTDNQRILEFFGLKKEECPAVRLITLEEEMTKYKPESDELTAEKITEFCHRFLEGKIKPHLMSQEVPEDWDKQPVKVLVGANFEEVAFDEKKNVFVEFYAPWCGHCKQLAPIWDKLGETYKDHENIIIAKMDSTANEVEAVKVHSFPTLKFFPASADRTVIDYNGERTLDGFKKFLESGGQDGAGDDEDLDLEEALEPDMEEDDDQKAVKDEL
Take B1: the “increase in fluorescence above background (PE transferred to CD1d)” value with recombinant murine CD1d turned out to be 5 fold.

Source of the values: patent US20050234073A1, “Methods of inhibiting inflammation” (priority 2003, published 2005).
